{
  "source": "patent US20190211317A1",
  "about": "“PEPTIDES AND NANOPARTICLES FOR INTRACELLULAR DELIVERY OF GENOME-EDITING MOLECULES” (Aadigen, LLC, priority 2016, published 2019)",
  "key": {"[1]": {"test_system": "endogenous EMX1 gene in U2OS, JURKAT and K562 cells", "experiment": "EMX1 gene editing from CPP delivery of CAS9/gRNA (T7E1 assay)", "assay_type": "cell-based, human", "experimental": "RNAiMAX delivery was used as a positive control as it was previously reported to show better results than Lipofectamine 2000 (Zuris et al., 2015, supra). […] Cells were returned to the incubator for 72 hours."}, "[2]": {"test_system": "endogenous EMX1 and HPRT genes in primary human cardiac fibroblasts and primary human hepatocytes", "experiment": "EMX1 and HPRT editing in primary human cells (T7E1 assay)", "assay_type": "cell-based", "settings": "for mean indel frequencies: both genes", "experimental": "ADGN-100 peptides were also evaluated for cellular delivery of multiple RGEN:gRNA complexes targeting endogenous EMX1 and HPRT genes in primary human cardiac fibroblasts and primary human hepatocytes. The CAS9/gRNA complexes contained either CAS9 protein or mRNA encoding the CAS9 protein and a gRNA targeting either EMX1 or HPRT. Human primary cardiac fibroblasts and human primary hepatocytes were freshly obtained and grown in flasks pre-coated with a gelatin-based coating solution and incubated in Culture Complete Growth Medium for 3 days before expansion and treatment. […] Non-Homologous End Joining (NHEJ) was analyzed 72 hours after transfection by the T7E1 assay and compared to delivery using RNAiMAX lipid methods. The toxicity was analyzed for all conditions using the MTT assay.\nCAS9 protein was preloaded with purified gRNA-GFP at a molar ratio of 1:1 and incubated for 10 min prior to forming complexes with ADGN peptides.\nThe following protocol was used for both cell types. Cells were cultured to about 70% confluence at the time of transfection. Cells were maintained in high glucose DMEM media with 10% serum. Before transfection, cells were washed with DMEM twice and resuspended in 0.2 ml of complex solution (16 μl complex+184 μl OPTiMEM) mixed gently and incubated for 10 min at 37° C. 0.8 mL of fresh OPTiMEM (high glucose) was added and cells were incubated for 20 min at 37° C. […] Cells were returned to the incubator at 37° C. and assayed at 72 hours post transfection.\nAs a positive control, complexes were delivered using RNAiMAX (Invitrogen Thermo Fisher). CAS9-induced double-strand break formation followed by repair throughout the non-homologous end joining (NHEJ) system was analyzed at 72 hours by the T7E1 assay and quantified using a Fragment Analyzer System. The indel frequencies reported for the EMX1 and HPRT genes are an average of 3 separate experiments. Cytotoxicity was analyzed using the MTT assay."}, "[3]": {"test_system": "hPD1 gene in human T cells", "experiment": "Simultaneous delivery of CAR plasmid and CAS9/gRNA: hPD1 editing (T7E1)", "assay_type": "cell-based", "settings": "for mean indel frequency: two donors", "procedure": "Cells were incubated for 5 min, then 300 μl of serum free RPMI-1640 medium was added. After 30 min, 1.2 mL of full medium was added and serum level was adjusted to 10%. As control, CAS9 loaded with gRNA targeting GFP was used. For comparison with electroporation methods, cells were transfected with the anti-CD-19 CAR plasmid (5 μg) and gRNA/CAS9 (5 μg/10 μg) using Nucleofector 2b (Lonza, Germany) with the Amaxa Human T cells Nucleofector Kit, VPA-1002 (Lonza, Germany).\nOn day 5, the level of transduced and untransduced cells was analyzed, and cells were transferred to fresh T cell expansion medium. The cultures were analyzed for viability and anti-CD19 CAR expression by flow cytometry. The expression of the anti-CD19 CAR in the T cells was evaluated by flow cytometry using a Protein L assay. […] 7-AAD (Sigma) was used to determine viability. CAS9-induced double-strand break followed by repair through NHEJ system was analyzed by either the T7E1 assay or using the Genome Cleavage Detection kit (GCD Thermo Fisher) and quantified using Fragment Analyzer System. The indel frequency in the target gene was quantified using the T7E1 assay. The cultures were expanded and analyzed for viability, anti-CD19 expression and PD I level every 10 days. T cell expansion medium contained AIM V medium, supplemented with 5% heat-inactivated human AB Serum, 1% Gluta-Max, and 300 IU/mL IL-2."}, "[4]": {"test_system": "E-Catenin gene in mouse muscle myoblast cells (C2C12)", "experiment": "ü-Catenin gene disruption in C2C12 myoblasts (PCR gel)", "assay_type": "cell-based", "settings": "undifferentiated and differentiated C2C12", "experimental": "Cells were transfected with CAS9/gRNA (2.5 μM/5 μM) complexes associated with CPP (+) or not (−) at a molar ratio of 20:1 (peptide to complex) and compared to delivery by RNAiMAX for E-Catenin expression. ü-actin expression was included as a loading control.\n[…] Delivery by RNAiMAX was included as a positive control.\nCAS9-induced NHEJ was analyzed 72 hours after transfection by PCR (FIG. 26) and T7E1 assay (FIG. 27). The deletion (indel) frequencies in the HPRT gene were quantified using a T7E1 assay by quantifying the amount of uncut vs cut DNA using a Fragment Analyzer System. Data for on-target mutations induced by RGEN/gRNA are reported as an average of 3 separate experiments\nThe cell line was maintained in 5% CO2 at 37° C. and cell viability was assessed by the Trypan Blue exclusion test. To induce myogenic differentiation, at about 80% cell confluence the medium containing 10% fetal calf serum was substituted with medium containing 1% fetal calf serum. The cells were transfected at the undifferentiated stage or at day 7 after differentiation."}, "[5]": {"test_system": "primary human fibroblasts and primary human hepatocytes", "experiment": "Toxicity of ADGN-100a/CAS9/gRNA in primary cells (MTT assay)", "assay_type": "cell-based", "settings": "both primary cell types", "experimental": "Cytotoxic response was measured 24 hours later by colorimetric MTT assay (Sigma, Germany). For MTT assay, cell culture medium was removed and replaced with PBS containing 2.5 mg/ml of MTT for 4 hours."}, "[6]": {"test_system": "EGFP reporter gene in EGFP-U2OS cells", "procedure": "ADGN-100 was evaluated for cellular delivery of a plasmid encoding CAS9 and gRNA targeting a specific site in the exogenous EGFP gene reporter in U2OS cells (EGFP-U2OS).\nStock solutions of amphipathic peptides were prepared at 1 mg/mL in distilled water and sonicated for 10 min.\nEGFP-U2OS cells containing a single integrated EGFP reporter gene were cultured in Dulbecco's Modified Eagle's Medium (DMEM), supplemented with 2 mM glutamine, 1% antibiotics (streptomycin 10,000 μg/mL, penicillin, 10,000 IU/mL) and 10% (w/v) foetal calf serum (FCS), at 37° C. in a humidified atmosphere containing 5% CO2. A total of 150,000 cells seeded in a 35 mm dish the day prior to transfection were grown to 50-60% confluence and overlaid with 200 μl of preformed complexes, incubated for 3-5 min, then 400 μl of DMEM was added. After 30 min incubation at 37° C., 1 mL of fresh DMEM containing 16% FCS was added to reach a final FCS concentration of 10%, without removing the overlay of CPP/CAS9-gRNA complexes. Cells were returned to the incubator for 72 hours.\nCAS9-induced double-strand break formation was analyzed using flow cytometry by monitoring the level of EGFP expression. […] Lipofectamine 2000 delivery was used as positive control."}, "[7]": {"test_system": "hPD1 gene in human T cells", "experiment": "hPD1 gene editing in primary human T cells (T7E1 assay)", "assay_type": "cell-based", "procedure": "T cells were isolated from PBMCs (2 different donors) using anti-CD3/anti-CD28 antibodies bound to paramagnetic beads (Dynabeads ClinExVivo CD3/CD28, Invitrogen) at a ratio of 3:1 (beads:cells). The cells and beads were co-incubated for 2 hours at room temperature and CD3′ cell enrichment was performed using Dynal ClinExVIVO MPC magnet (Thermo Fisher). The anti-CD3/anti-CD28 paramagnetic beads were removed, washed and concentrated. Cells in the CD3′ fraction were resuspended in activation media at a concentration of 1×10^6 cells/ml with AIM-V medium (Thermo Fishers) supplemented with 10% fetal calf serum, 300 IU/ml IL2 and 50 ng/ml OKT3 (MuromonAB-CD3) for two days.\nCells were transfected by electroporation with CD-19 plasmid or gRNA/CAS9 (5 μg/10 μg) using a Nucleofector 2b (Lonza, Germany) with the Amaxa Human T cells Nucleofector Kit, VPA-1002 (Lonza, Germany). 5×10^6 cells were washed twice with DPBS by centrifuging at 800 rpm for 5 minutes and resuspended in 100 ^l transfection buffer, and then transferred into the electroporation cuvette. An optimized program selected for both high transfection and high efficiency on T cells was used. After electroporation, cells were resuspended in 500 ^l pre-warmed AIM-V medium containing 10% FBS and incubated at 37° C. in 5% CO2. The transfection efficiency was evaluated after 48 hr by flow cytometry or T7E1 assay.\nAs control, CAS9 loaded with gRNA targeting GFP was used.\nCells were returned to the incubator for 72 hours. CAS9-induced double-strand break followed by repair through non-homologous end joining (NHEJ) was analyzed by either the T7E1 assay or using the Genome Cleavage Detection kit (GCD Thermo Fisher) and quantified using Fragment Analyzer System. The indel frequency in the target gene was quantified using the T7E1 assay. The cultures were expanded and analyzed for viability and PD1 levels every 10 days. T cell expansion medium contained AIM V medium, supplemented with 5% heat-inactivated human AB Serum, 1% Gluta-Max, and 300 IU/mL IL-2."}, "[8]": {"test_system": "U2OS, HEPG2, K562 cells and primary human fibroblasts", "experiment": "CAS9 protein expression after CPP delivery of CAS9 mRNA (ELISA)", "assay_type": "cell-based", "settings": "day 3", "procedure": "CPP/CAS9 mRNA complexes were formed by mixing the CAS9 mRNA (0.5 μg) with CPP at a 20:1 molar ratio of CPP:CAS9 mRNA and incubating for 30 min at 37° C. prior to cell transfection. Cells were transfected according to optimized protocols for either adherent or suspension cell lines.\nHuman primary fibroblasts were freshly obtained and grown in flasks pre-coated with a gelatin-based coating solution and incubated in Culture Complete Growth Medium for 3 days before expansion and treatment. U2OS cells were cultured in Dulbecco's Modified Eagle's Medium (DMEM), supplemented with 2 mM glutamine, 1% antibiotics (streptomycin 10,000 μg/mL, penicillin, 10,000 IU/mL) and 10% (w/v) foetal calf serum (FCS), at 37° C. in a humidified atmosphere containing 5% CO2. 35 mm dishes seeded with 150,000 cells the day prior to transfection were grown to 50-60% confluence and set up to be at about 70% confluences at the time of transfection. Before transfection, cells were washed with DMEM (2×) followed by PBS (1×). Cells were then overlaid with 0.2 ml of complex solution (16 μl CPP/Cargo complex in water+184 μl OPTiMEM without antibiotics), mixed gently, and incubated for 10 min at 37° C. 0.8 mL of fresh OPTiMEM or DMEM was then added and cells were incubated for 20 min at 37° C. 2 mL of complete OPTiMEM (high glucose) or DMEM containing 11.4% FCS was then added in order to reach a final FCS concentration of 10%, without removing the overlay of CPP/Cargo complexes. Cells were returned to the incubator (37° C., 5% CO2) and assayed at 72 hours post transfection.\nK562 and HEpG2 cells were set up to be at about 70% confluence at the time of transfection. The cells were maintained in high glucose DMEM media with 10% serum. Before transfection, cells were harvested by centrifugation, then washed with DMEM (2×) followed by PBS (1×). Cells were then resuspended in 0.2 ml of complex solution (16 μl CPP/Cargo complex in water+184 μl OPTiMEM without antibiotics), mixed gently, and incubated for 10 min at 37° C. 0.8 mL of fresh OPTiMEM was then added and cells were incubated for 20 min at 37° C. 2 mL of complete OPTiMEM (high glucose) containing 11.4% FCS was then added in order to reach a final FCS concentration of 10%, without removing the overlay of CPP/Cargo complexes. Cells were returned to the incubator (37° C., 5% CO2) and assayed at 72 hours post transfection.\nRNAiMAX lipid-based delivery (Invitrogen Thermo Fisher France) was used as a control and transfections were performed following the manufacturer's instructions. CAS9 expression level was analyzed at multiple time points over a period of 10 days as determined by ELISA on protein extracts using antibodies against CRISPR/Cas9 obtained from Diagenode (Diagenode cat. No. C15200223) and ABCAM (clone 7A9-ab191468)."}, "[9]": {"settings": "Donor 1, CAS9/sgRNA 2.5 μg/5 μg"}, "[10]": {"settings": "Donor 2, CAS9/sgRNA 2.5 μg/5 μg"}},
  "note": "“And” between values parts separate entries of the source, which are not always exact repeats. Identical values can stand only once. Like-named read-outs stand apart in the source and are kept apart here.",
  "data": [
    {"smiles": "CC(C)C[C@H](NC(=O)[C@H](CCCNC(=N)N)NC(=O)[C@H](Cc1c[nH]c2ccccc12)NC(=O)[C@H](CCCNC(=N)N)NC(=O)[C@H](Cc1c[nH]c2ccccc12)NC(=O)CNC(=O)[C@H](C)NC(=O)[C@H](CO)NC(=O)[C@H](CCCNC(=N)N)NC(=O)[C@H](Cc1c[nH]c2ccccc12)NC(=O)[C@H](CCCCN)NC(=O)CCN)C(=O)N[C@@H](Cc1c[nH]c2ccccc12)C(=O)N[C@@H](CCCNC(=N)N)C(=O)N[C@H](C(=O)N[C@@H](CCCNC(=N)N)C(=O)N[C@@H](CO)C(=O)N[C@@H](Cc1c[nH]c2ccccc12)C(=O)N[C@@H](CO)C(=O)N[C@@H](CCCNC(=N)N)C(=O)O)C(C)C", "note": "[ADGN-100a]", "values": [
      {"measurement": "Mean indel Frequency ± S.E.M", "setting": "[1]; JURICAT, CAS9/sgRNA 25 nM", "value": "65% and 65 ± 5%"},
      {"measurement": "Mean indel Frequency ± S.E.M", "setting": "[1]; JURKAT, CAS9/sgRNA 50 nM", "value": "68 ± 6", "unit": "%"},
      {"measurement": "Mean indel Frequency ± S.E.M", "setting": "[1]; K562, CAS9/sgRNA 25 nM", "value": "71% and 71 ± 8%"},
      {"measurement": "Mean indel Frequency ± S.E.M", "setting": "[1]; K562, CAS9/sgRNA 50 nM", "value": "74 ± 4", "unit": "%"},
      {"measurement": "Mean indel Frequency ± S.E.M", "setting": "[1]; U2OS, CAS9/sgRNA 25 nM, 20:1", "value": "67% and 67 ± 5%"},
      {"measurement": "Mean indel Frequency ± S.E.M", "setting": "[1]; U2OS, CAS9/sgRNA 50 nM", "value": "72 ± 8", "unit": "%"},
      {"measurement": "more potent than RNAiMAX", "setting": "[2]", "value": "3-4 folds"},
      {"measurement": "Mean indel Frequency ± S.E.M", "setting": "[2]; EMX1, Fibroblasts, 20 nM", "value": "65 ± 4", "unit": "%"},
      {"measurement": "Mean indel Frequency ± S.E.M", "setting": "[2]; EMX1, Fibroblasts, 50 nM", "value": "67 ± 5", "unit": "%"},
      {"measurement": "Mean indel Frequency ± S.E.M", "setting": "[2]; EMX1, Fibroblasts, CAS9/sgRNA 10 nM", "value": "61 ± 5", "unit": "%"},
      {"measurement": "Mean indel Frequency ± S.E.M", "setting": "[2]; EMX1, Hepatocytes, 10 nM", "value": "55 ± 6", "unit": "%"},
      {"measurement": "Mean indel Frequency ± S.E.M", "setting": "[2]; EMX1, Hepatocytes, 20 nM", "value": "58 ± 5", "unit": "%"},
      {"measurement": "Mean indel Frequency ± S.E.M", "setting": "[2]; EMX1, Hepatocytes, 50 nM", "value": "61 ± 5", "unit": "%"},
      {"measurement": "Mean indel Frequency ± S.E.M", "setting": "[2]; HPRT (printed HPR/HPRI), Fibroblasts, 10 nM", "value": "62 ± 5", "unit": "%"},
      {"measurement": "Mean indel Frequency ± S.E.M", "setting": "[2]; HPRT, Fibroblasts, 20 nM", "value": "68 ± 4", "unit": "%"},
      {"measurement": "Mean indel Frequency ± S.E.M", "setting": "[2]; HPRT, Fibroblasts, 50 nM", "value": "70 ± 5", "unit": "%"},
      {"measurement": "Mean indel Frequency ± S.E.M", "setting": "[2]; HPRT, Hepatocytes, 10 nM", "value": "54 ± 6", "unit": "%"},
      {"measurement": "Mean indel Frequency ± S.E.M", "setting": "[2]; HPRT, Hepatocytes, 20 nM", "value": "56 ± 5", "unit": "%"},
      {"measurement": "Mean indel Frequency ± S.E.M", "setting": "[2]; HPRT, Hepatocytes, 50 nM", "value": "57 ± 5", "unit": "%"},
      {"measurement": "mean indel frequencies", "setting": "[2]; primary fibroblasts, 20 nM", "value": "more than 60%"},
      {"measurement": "mean indel frequencies", "setting": "[2]; primary hepatocytes, 20 nM", "value": "> 55", "unit": "%"},
      {"measurement": "Mean indel Frequency ± s.e.m", "setting": "[3]; [9]", "value": "44 ± 5", "unit": "%"},
      {"measurement": "Mean indel Frequency ± s.e.m", "setting": "[3]; Donor 1, CAS9/sgRNA 5 μg/10 μg", "value": "50 ± 3", "unit": "%"},
      {"measurement": "Mean indel Frequency ± s.e.m", "setting": "[3]; [10]", "value": "42 ± 3", "unit": "%"},
      {"measurement": "Mean indel Frequency ± s.e.m", "setting": "[3]; Donor 2, CAS9/sgRNA 5 μg/10 μg", "value": "51 ± 8", "unit": "%"},
      {"measurement": "mean indel frequency", "setting": "[3]; 2.5 μg/5 μg CAS9/gRNA", "value": "approximately 42%"},
      {"measurement": "mean indel frequency", "setting": "[3]; 5 μg/10 μg CAS9/gRNA", "value": "approximately 50%"},
      {"measurement": "editing of ü-Catenin and HPRT genes", "setting": "[4]", "value": "robust editing"},
      {"measurement": "toxicity", "setting": "[5]", "value": "less than 10%"},
      {"measurement": "decrease in EGFP expression", "setting": "[6]; molar ratio 10:1 of ADGN-100a to each nucleic acid", "value": 23, "unit": "%"},
      {"measurement": "decrease in EGFP expression", "setting": "[6]; molar ratio 20:1", "value": 38, "unit": "%"},
      {"measurement": "Mean indel Frequency ± s.e.m", "setting": "[7]; [9]", "value": "48 ± 6", "unit": "%"},
      {"measurement": "Mean indel Frequency ± s.e.m", "setting": "[7]; Donor 1, CAS9/sgRNA 5 μg/10 μg", "value": "56 ± 4", "unit": "%"},
      {"measurement": "Mean indel Frequency ± s.e.m", "setting": "[7]; [10]", "value": "52 ± 5", "unit": "%"},
      {"measurement": "Mean indel Frequency ± s.e.m", "setting": "[7]; Donor 2, CAS9/sgRNA 5 μg/10 μg", "value": "61 ± 8", "unit": "%"},
      {"measurement": "mean indel frequency of hPD1 gene", "setting": "[7]; T cells from the two donors, 5 μg/10 μg CAS9/gRNA", "value": 58, "unit": "%"},
      {"measurement": "ELISA signal for CAS9 protein expression", "setting": "[8]; U2OS, K562, HepG2, CAS9 mRNA 0.5 μg", "value": "about 25 times the background"},
      {"measurement": "ELISA signal for CAS9 protein expression", "setting": "[8]; primary human fibroblasts", "value": "about 20 times the background"}
    ]}
  ]
}
